Laboratory results reported in patent publication US10913781B2, “Pepducin design and use” (Tufts Medical Center, Inc., priority 2011, dated 2021).

What was measured:
PAR4 [1] = target: T1, PAR4 (Homo sapiens, UniProt Q96RI0); experiment: Calcium flux assay in SW620 cells, PAR4; assay type: cell-based; design: endogenous in cells
T1 sequence (Q96RI0 18-385): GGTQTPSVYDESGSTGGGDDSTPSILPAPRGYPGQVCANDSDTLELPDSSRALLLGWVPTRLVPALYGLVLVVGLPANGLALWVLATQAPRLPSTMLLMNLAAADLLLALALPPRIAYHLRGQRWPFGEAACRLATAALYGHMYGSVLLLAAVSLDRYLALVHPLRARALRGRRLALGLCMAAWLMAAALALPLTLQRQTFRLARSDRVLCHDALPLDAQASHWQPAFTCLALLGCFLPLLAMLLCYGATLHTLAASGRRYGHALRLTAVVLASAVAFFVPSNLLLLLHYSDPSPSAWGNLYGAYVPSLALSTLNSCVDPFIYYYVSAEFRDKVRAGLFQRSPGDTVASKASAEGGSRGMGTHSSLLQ

PAR4 [2] = target: T1, PAR4; experiment: [3H]-InsP formation in COS7 cells transfected with PAR4; assay type: cell-based; design: expressed in transfected cells; host or cells: COS7; conditions: 100 μM AYPGKF, 30 min
Protocol: (A) PAR2 antagonist pepducins P2pal-18S and P2pal-14GQ inhibit calcium flux induced by PAR2 (SLIGRL) (SEQ ID NO:4) but not PAR1 (TFLLRN) (SEQ ID NO:2) agonists. SW620 cells were stably transfected with PAR1 and pretreated for 1 min with various concentrations of P2pal-18S or P2pal-14GQ and then stimulated with 30 μM PAR agonist. […] Cells were stimulated with 1 μM TFLLRN (SEQ ID NO:2), 1 μM SLIGRL (SEQ ID NO:4) or 100 μM AYPGKF (SEQ ID NO:5) and [^3H]-InsP formation measured over 30 min. (C) SW620 cells were treated with the indicated concentrations of P2pal-18S or P2pal-14GQ in the upper well of an 8-μm pore Boyden chamber and allowed to migrate for 18 h towards 10 μM of the PAR2 specific agonist SLIGRL in the lower chamber. The migration to RPMI/0.1% FBS represents random migration. (D) Migration of HEK cells transiently transfected with PAR2 (wild-type, WT), or PAR2-R36A/PAR2-RQ toward chemotactic gradients of 30 nM trypsin in the absence or presence of the indicated concentration of P2pal-18S for 18 h in a transwell apparatus ([…]). Data (n=2-4) are mean±SEM. *, P<0.05 and **, P<0.005.

PAR2 [3] = target: PAR2 (Mus musculus, UniProt P55086); experiment: Mast cell conditioned media-induced mouse paw edema; assay type: in vivo; design: from tissue; host or cells: living C57BL/6 mice, hindpaw; conditions: 10 mg/kg
Sequence of PAR2 (Mus musculus, UniProt P55086) (P55086 26-399): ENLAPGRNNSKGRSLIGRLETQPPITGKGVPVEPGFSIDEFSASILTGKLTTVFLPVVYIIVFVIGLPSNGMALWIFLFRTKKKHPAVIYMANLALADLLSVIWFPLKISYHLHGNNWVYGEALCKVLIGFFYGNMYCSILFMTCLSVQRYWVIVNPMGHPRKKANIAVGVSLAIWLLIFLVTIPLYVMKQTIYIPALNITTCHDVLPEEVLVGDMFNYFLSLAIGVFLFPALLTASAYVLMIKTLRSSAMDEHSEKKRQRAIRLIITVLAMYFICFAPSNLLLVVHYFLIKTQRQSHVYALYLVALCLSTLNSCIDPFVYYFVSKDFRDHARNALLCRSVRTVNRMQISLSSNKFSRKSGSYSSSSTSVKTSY
Protocol: (A) Mast cells were treated with 2 mg/mL of mast cell degranulating agent 48/80 or 2% 1-carrageenan/4% kaolin. […] (B) P2pal-18S inhibits human neutrophil chemotaxis (n=6) to mast cell media. Human neutrophils were incubated with […] P2pal-18S, or […] mast cell tryptase inhibitor APC-366 and allowed to migrate 30 min toward CM from mast cells. (C) C57BL/6 mice (n=5) were pretreated with the tryptase inhibitor APC-366 (5 mg/kg, s.c.) or vehicle (20% DMSO) and then challenged with intraplantar injection of 1-carrageenan/kaolin. (D) Mast cell conditioned media (30 μL of 1-carrageenan/kaolin stimulated media) was injected into the hindpaws of C57BL/6 mice treated with 10 mg/kg P2pal-18S or vehicle (n=5). Data represent mean±SEM. #, P=0.07, *, P<0.05 and **, P<0.005. (E) Mast cell-deficient mice have a significant reduction in 1-carrageenan/kaolin induced paw edema (8 h time point, n=4-6) as compared to littermate controls. Mast-cell deficient mice or littermate controls with intact mast cells were treated with P2pal-18S (10 mg/kg, s.c.) or vehicle and hind paws challenged with 1-carrageenan/kaolin irritant. Error bars represent mean±SEM.
To examine whether mast cells and mast cell tryptase were activating PAR2 in the paw edema model in vivo, mice were depleted of mast cells through pretreatment with compound 48/80 (Carvalho M et al. Eur J Pharmacol (2005), 525: 161-169). […]

PAR4 [4] = target: T1, PAR4; experiment: Human neutrophil chemotaxis to AYPGKF; assay type: cell-based; design: endogenous in cells; host or cells: human peripheral blood neutrophils; conditions: 100 μM AYPGKF
Protocol: (§1) (A) Human neutrophils (n=4 normal volunteers) were analyzed for surface expression of human PAR1, PAR2, and PAR4 by flow cytometry with PAR-specific antibodies. […] Chemotaxis index is the ratio of directed versus random migration over 30 min through a 5-μm pore filter.
P2pal-18S had no effect on PAR1-dependent platelet aggregation (FIG. 5A). Neither P2pal-18S nor P2pal-14GQ caused membrane disruption or apoptosis as assessed by propidium iodide uptake in SW620 cells with up to 30 μM concentrations of pepducin (FIG. 5B).

PAR2 [5] = target: PAR2 (Homo sapiens, UniProt P55085); experiment: Human neutrophil chemotaxis to PAR2 agonists (trypsin, SLIGRL, tryptase); assay type: cell-based; design: SW620 colon adenocarcinoma cells that endogenously express PAR2; endogenous in cells; host or cells: SW620 (in A7 the SW620 cells were additionally stably transfected with PAR1)
Sequence of PAR2 (Homo sapiens, UniProt P55085) (P55085 26-397): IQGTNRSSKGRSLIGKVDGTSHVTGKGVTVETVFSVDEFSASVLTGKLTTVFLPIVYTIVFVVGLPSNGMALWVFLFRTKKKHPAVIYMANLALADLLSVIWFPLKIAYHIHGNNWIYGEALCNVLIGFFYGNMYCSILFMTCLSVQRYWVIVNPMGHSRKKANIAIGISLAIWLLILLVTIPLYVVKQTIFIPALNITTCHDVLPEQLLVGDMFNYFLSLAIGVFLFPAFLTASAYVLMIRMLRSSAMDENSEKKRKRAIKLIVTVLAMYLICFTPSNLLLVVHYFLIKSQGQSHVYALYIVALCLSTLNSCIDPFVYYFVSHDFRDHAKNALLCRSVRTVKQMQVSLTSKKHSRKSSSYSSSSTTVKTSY
Protocol: as §1
The ability of some pepducin embodiments of the invention to antagonize PAR2-dependent activity of human neutrophils was tested. Neutrophils were isolated from the peripheral blood of healthy human volunteers and found to express high levels of surface PAR2 and PAR4 and lower apparent levels of PAR1 by flow cytometry (FIG. 3A). […] As human PAR2 shares 85% identity with mouse PAR2 and the mouse i3 loop retains all of the critical pharmacophores identified in the human PAR2 i3 loop, cross-species inhibition with mouse cells was tested.

CCCCCCCCCCCCCCCC(=O)N[C@@H](CCCNC(=N)N)C(=O)N[C@@H](CO)C(=O)N[C@@H](CO)C(=O)N[C@@H](C)C(=O)N[C@@H](CCSC)C(=O)N[C@@H](CC(=O)O)C(=O)N[C@@H](CCC(=O)O)C(=O)N[C@@H](CC(N)=O)C(=O)N[C@@H](CO)C(=O)N[C@@H](CCC(=O)O)C(=O)N[C@@H](CCCCN)C(=O)N[C@@H](CCCCN)C(=O)N[C@@H](CCCNC(=N)N)C(=O)N[C@@H](CCCCN)C(=O)N[C@@H](CO)C(=O)N[C@@H](C)C(=O)N[C@H](C(=O)N[C@@H](CCCCN)C(N)=O)[C@@H](C)CC [P2pal-18S]
Inhibition of PAR4 calcium flux (PAR4 [1]): did not inhibit
Inhibition of InsP signaling from PAR4 (PAR4 [2]): do not inhibit
Decrease in peak development of edema (PAR2 [3]; at 4 h, mast cell media intraplantar): 50%
Protection against edema at later times (PAR2 [3]; at 8 h and thereafter): complete protection
Antagonist activity, neutrophil chemotaxis, PAR4 (PAR4 [4]): no antagonist activity
Inhibition of chemotactic migration to tryptase (PAR2 [5]; 0.3 μM pepducin, 100 nM tryptase): completely blocked
IC50 (PAR2 [5]; gradients of trypsin (30 nM) and SLIGRL (10 μM), 30 min, read-out: IC50, inhibition of neutrophil chemotaxis): 140 to 200 nM
